Assay results from patent publication US8158647B2, “Substituted pyrrolopyridines and pyrazolopyridines as kinase modulators” (SGX Pharmaceuticals, Inc., priority 2007, dated 2012).

How the values were obtained:
[1] = biological target: T1, purified and unphosphorylated T315I Abl kinase domain (ABL_T315I_0P) (Mus musculus, UniProt P00520, T315I); test: c-Abl T315I (unphosphorylated kinase domain) pyruvate kinase/lactate dehydrogenase coupled enzyme assay; format: biochemical; conditions: 10 μM ATP
T1 construct: The c-Abl T3151 KD (kinase domain) was purified as follows; Met-Ser-Leu (vector-derived residues) (N); made in house; host or cells: E. coli BL21(DE3) strains (Codon+RIL, or pSA0145 for the lambda phosphatase co-expression plasmid)
T1 sequence (P00520 242-493 T315I limits assumed): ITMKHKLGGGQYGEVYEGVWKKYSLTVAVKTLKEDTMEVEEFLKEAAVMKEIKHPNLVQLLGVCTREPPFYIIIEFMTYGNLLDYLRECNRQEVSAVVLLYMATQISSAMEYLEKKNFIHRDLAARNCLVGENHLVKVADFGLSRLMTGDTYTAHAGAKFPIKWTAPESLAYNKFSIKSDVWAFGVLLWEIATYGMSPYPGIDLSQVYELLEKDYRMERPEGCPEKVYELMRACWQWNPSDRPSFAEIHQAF

[2] = biological target: T2, ABL T315I BAF3 cells (Homo sapiens, UniProt P00519, T315I, cells depend on it); test: 96-well XTT cell survival assay, BaF3 ABL T315I; format: cell-based; conditions: 72 hours, read-out: CELL BIO ABL T315I BAF3 XTT (IC50)
T2 construct: ABL T315I BAF3; fused on or other part: P11274 (Breakpoint cluster region protein)
How it was run: (§1)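 Ba/F3 cells in RPMI 1640 with 10% FBS (IL-3 medium for maintenance) were seeded at 5000-8000 cells/well and exposed to compound dilutions in duplicate for 72 h at 37° C. Viability read by XTT/PMS, absorbance 405 nm minus 650 nm after 2-6 h.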

[3] = biological target: T3, ABL P210WT BAF3 cells (Homo sapiens, UniProt P00519); test: 96-well XTT cell survival assay, BaF3 ABL P210WT; format: cell-based; conditions: ABL P210 WT, 72 hours, read-out: CELL BIO ABL P210WT BAF3 XTT (IC50)
T3 construct: ABL P210WT BAF3; fused on or other part: P11274 (Breakpoint cluster region protein)
How it was run: as §1

Row | ABL_T315I_0P (IC50) [1] | Compound | GI50 [2] | GI50 [3]
1 | D (<0.01 μM) | Nc1ncc(-c2cnc3[nH]cc(-c4cccc(F)c4)c3c2Cl)cc1C(=O)N1CCOCC1 [{2-Amino-5-[4-chloro-3-(3-fluoro-phenyl)-1H-pyrrolo[2,3-b]pyridin-5-yl]-pyridin-3-yl}-morpholin-4-yl-methanone] | 10 to 100 nM | 10 to 100 nM
2 | D (<0.01 μM) | OC(c1cccc(-c2cnc3[nH]cc(-c4ccccc4F)c3c2Cl)c1)c1ncco1 (stereo not drawn) [{3-[4-Chloro-3-(2-fluoro-phenyl)-1H-pyrrolo[2,3-b]pyridin-5-yl]-phenyl}-oxazol-2-yl-methanol] | > 1000 nM | > 1000 nM
3 | C (0.1-0.01 μM) | OC(c1cccc(-c2cnc3[nH]cc(-c4ccc(F)cc4)c3c2Cl)c1)c1ncco1 (stereo not drawn) [{3-[4-Chloro-3-(4-fluoro-phenyl)-1H-pyrrolo[2,3-b]pyridin-5-yl]-phenyl}-oxazol-2-yl-methanol] | > 1000 nM | > 1000 nM
4 | D (<0.01 μM) | OC(c1cncc(-c2cnc3[nH]cc(-c4cccc(F)c4F)c3c2Cl)c1)c1ncccc1F (stereo not drawn) [{5-[4-Chloro-3-(2,3-difluoro-phenyl)-1H-pyrrolo[2,3-b]pyridin-5-yl]-pyridin-3-yl}-(3-fluoro-pyridin-2-yl)-methanol] | 100 to 1000 nM | 100 to 1000 nM
5 | D (<0.01 μM) | OC(c1cncc(-c2cnc3[nH]cc(-c4cccc(F)c4F)c3c2Cl)c1)C1CC1 (stereo not drawn) [{5-[4-Chloro-3-(2,3-difluoro-phenyl)-1H-pyrrolo[2,3-b]pyridin-5-yl]-pyridin-3-yl}-cyclopropyl-methanol] | 100 to 1000 nM | 100 to 1000 nM
6 | D (<0.01 μM) | Cn1nccc1C(O)c1cncc(-c2cnc3[nH]cc(-c4ccccc4F)c3c2Cl)c1 (stereo not drawn) [{5-[4-Chloro-3-(2-fluoro-phenyl)-1H-pyrrolo[2,3-b]pyridin-5-yl]-pyridin-3-yl}-(2-methyl-2H-pyrazol-3-yl)-methanol] | > 1000 nM | > 1000 nM
7 | D (<0.01 μM) | OC(c1cncc(-c2cnc3[nH]cc(-c4ccccc4F)c3c2Cl)c1)c1ncco1 (stereo not drawn) [{5-[4-Chloro-3-(2-fluoro-phenyl)-1H-pyrrolo[2,3-b]pyridin-5-yl]-pyridin-3-yl}-oxazol-2-yl-methanol] | 100 to 1000 nM | 100 to 1000 nM
8 | C (0.1-0.01 μM) | OC(c1cncc(-c2cnc3[nH]cc(-c4ccc(F)cc4)c3c2Cl)c1)c1ncccc1F (stereo not drawn) [{5-[4-Chloro-3-(4-fluoro-phenyl)-1H-pyrrolo[2,3-b]pyridin-5-yl]-pyridin-3-yl}-(3-fluoro-pyridin-2-yl)-methanol] | > 1000 nM | > 1000 nM
9 | D (<0.01 μM) | COc1ccc(F)cc1-c1c[nH]c2ncc(-c3cncc(C(O)c4ncccc4F)c3)c(Cl)c12 (stereo not drawn) [{5-[4-Chloro-3-(5-fluoro-2-methoxy-phenyl)-1H-pyrrolo[2,3-b]pyridin-5-yl]-pyridin-3-yl}-(3-fluoro-pyridin-2-yl)-methanol] | 10 to 100 nM | < 10 nM

The remaining lines, values behind:

Row | Compound | ABL_T315I_0P (IC50) [1] | GI50 [2] | GI50 [3]
10 | Cc1noc(C)c1-c1c[nH]c2ncc(-c3cncc(C(=O)N(C)C)c3)c(Cl)c12 [5-[4-Chloro-3-(3,5-dimethyl-isoxazol-4-yl)-1H-pyrrolo[2,3-b]pyridin-5-yl]-N,N-dimethyl-nicotinamide] | B (1.0-0.1 μM) | > 1000 nM | > 1000 nM
11 | COc1ccc(F)cc1-c1c[nH]c2ncc(-c3cncc(C(=O)N(C)C)c3)c(Cl)c12 [5-[4-Chloro-3-(5-fluoro-2-methoxy-phenyl)-1H-pyrrolo[2,3-b]pyridin-5-yl]-N,N-dimethyl-nicotinamide] | D (<0.01 μM) | 10 to 100 nM | < 10 nM
12 | CN(C)C(=O)c1cncc(-c2cnc3[nH]cc(-c4ccccc4F)c3c2Cl)n1 [6-[4-Chloro-3-(2-fluoro-phenyl)-1H-pyrrolo[2,3-b]pyridin-5-y] [6-[4-Chloro-3-(2-fluoro-phenyl)-1H-pyrrolo[2,3-b]pyridin-5-yl]-pyrazine-2-carboxylic acid dimethylamide] | D (<0.01 μM) | > 1000 nM | > 1000 nM
13 | CN(C)C(=O)c1cncc(-c2cnc3[nH]cc(-c4ccc(F)cc4)c3c2Cl)n1 [6-[4-Chloro-3-(4-fluoro-phenyl)-1H-pyrrolo[2,3-b]pyridin-5-yl]-pyrazine-2-carboxylic acid dimethylamide] | D (<0.01 μM) | > 1000 nM | 100 to 1000 nM
14 | COc1ccc(F)cc1-c1c[nH]c2ncc(-c3cncc(C(=O)N(C)C)n3)c(Cl)c12 [6-[4-Chloro-3-(5-fluoro-2-methoxy-phenyl)-1H-pyrrolo[2,3-b]pyridin-5-yl]-pyrazine-2-carboxylic acid dimethylamide] | D (<0.01 μM) | 10 to 100 nM | 10 to 100 nM
15 | CN(C)C(=O)c1cncc(-c2cnc3[nH]cc(-c4ccccc4F)c3c2Cl)n1 [6-[4-chloro-3-(2-fluoro-phenyl)-1H-pyrrolo[2,3,b]pyridine-5-] | D (<0.01 μM) | 100 to 1000 nM | 100 to 1000 nM
16 | OC(c1cncc(-c2cnc3[nH]cc(-c4ccccc4)c3c2Cl)c1)c1ncccc1F (stereo not drawn) [[5-(4-Chloro-3-phenyl-1H-pyrrolo[2,3-b]pyridin-5-yl)-pyridin-3-yl]-(3-fluoro-pyridin-2-yl)-methanol] | D (<0.01 μM) | 100 to 1000 nM | 100 to 1000 nM
17 | CNc1c(Br)cnc2[nH]cc(-c3ccccc3OC)c12 [[5-Bromo-3-(2-methoxy-phenyl)-1H-pyrrolo[2,3-b]pyridin-4-yl]-methyl-amine] | C (0.1-0.01 μM) | > 1000 nM | > 1000 nM
18 | Nc1ncc(-c2cnc3[nH]cc(-c4cc(F)ccc4F)c3c2Cl)cc1C(=O)N1CCCC1CO (stereo not drawn) [{2-Amino-5-[4-chloro-3-(2,5-difluoro-phenyl)-1H-pyrrolo[2,3-b]pyridin-5-yl]-pyridin-3-yl}-(2-hydroxymethyl-pyrrolidin-1-yl)-methanone] | D (<0.01 μM) | 100 to 1000 nM | 100 to 1000 nM
19 | CN(C)C1CCN(C(=O)c2cc(-c3cnc4[nH]cc(-c5cc(F)ccc5F)c4c3Cl)cnc2N)C1 (stereo not drawn) [{2-Amino-5-[4-chloro-3-(2,5-difluoro-phenyl)-1H-pyrrolo[2,3-b]pyridin-5-yl]-pyridin-3-yl}-(3-dimethylamino-pyrrolidin-1-yl)-methanone] | D (<0.01 μM) | 100 to 1000 nM | 100 to 1000 nM
20 | Nc1ncc(-c2cnc3[nH]cc(-c4cc(F)ccc4F)c3c2Cl)cc1C(=O)N1CC(O)C1 [{2-Amino-5-[4-chloro-3-(2,5-difluoro-phenyl)-1H-pyrrolo[2,3-b]pyridin-5-yl]-pyridin-3-yl}-(3-hydroxy-azetidin-1-yl)-methanone] | D (<0.01 μM) | 100 to 1000 nM | 100 to 1000 nM
21 | Nc1ncc(-c2cnc3[nH]cc(-c4cc(F)ccc4F)c3c2Cl)cc1C(=O)N1CCOCC1 [{2-Amino-5-[4-chloro-3-(2,5-difluoro-phenyl)-1H-pyrrolo[2,3-b]pyridin-5-yl]-pyridin-3-yl}-morpholin-4-yl-methanone] | D (<0.01 μM) | 100 to 1000 nM | 100 to 1000 nM
22 | COc1ccccc1-c1c[nH]c2ncc(-c3cnc(N)c(C(=O)N4CCOCC4)c3)c(Cl)c12 [{2-Amino-5-[4-chloro-3-(2-methoxy-phenyl)-1H-pyrrolo[2,3-b]pyridin-5-yl]-pyridin-3-yl}-morpholin-4-yl-methanone] | D (<0.01 μM) | 100 to 1000 nM | 100 to 1000 nM
23 | Nc1ncc(-c2cnc3[nH]cc(-c4cccc(F)c4)c3c2Cl)cc1C(=O)N1CCCC1CO (stereo not drawn) [{2-Amino-5-[4-chloro-3-(3-fluoro-phenyl)-1H-pyrrolo[2,3-b]pyridin-5-yl]-pyridin-3-yl}-(2-hydroxymethyl-pyrrolidin-1-yl)-methanone] | D (<0.01 μM) | 100 to 1000 nM | 100 to 1000 nM
24 | CN(C)C1CCN(C(=O)c2cc(-c3cnc4[nH]cc(-c5cccc(F)c5)c4c3Cl)cnc2N)C1 (stereo not drawn) [{2-Amino-5-[4-chloro-3-(3-fluoro-phenyl)-1H-pyrrolo[2,3-b]pyridin-5-yl]-pyridin-3-yl}-(3-dimethylamino-pyrrolidin-1-yl)-methanone] | D (<0.01 μM) | 100 to 1000 nM | 100 to 1000 nM
25 | Nc1ncc(-c2cnc3[nH]cc(-c4cccc(F)c4)c3c2Cl)cc1C(=O)N1CC(O)C1 [{2-Amino-5-[4-chloro-3-(3-fluoro-phenyl)-1H-pyrrolo[2,3-b]pyridin-5-yl]-pyridin-3-yl}-(3-hydroxy-azetidin-1-yl)-methanone] | D (<0.01 μM) | 100 to 1000 nM | 100 to 1000 nM
